How the values were obtained:
[1] = molecular target: T1, HPEPT1 (Homo sapiens, UniProt P46059); conditions: for Uptake (hPepT1): HeLa cells overexpressing HPEPT1, 50 micromolar, pH 6.0, 45 minutes; for hPepT1/Control: ratio of uptake in hPepT1 cells versus control cells
T1 sequence (P46059 1-708): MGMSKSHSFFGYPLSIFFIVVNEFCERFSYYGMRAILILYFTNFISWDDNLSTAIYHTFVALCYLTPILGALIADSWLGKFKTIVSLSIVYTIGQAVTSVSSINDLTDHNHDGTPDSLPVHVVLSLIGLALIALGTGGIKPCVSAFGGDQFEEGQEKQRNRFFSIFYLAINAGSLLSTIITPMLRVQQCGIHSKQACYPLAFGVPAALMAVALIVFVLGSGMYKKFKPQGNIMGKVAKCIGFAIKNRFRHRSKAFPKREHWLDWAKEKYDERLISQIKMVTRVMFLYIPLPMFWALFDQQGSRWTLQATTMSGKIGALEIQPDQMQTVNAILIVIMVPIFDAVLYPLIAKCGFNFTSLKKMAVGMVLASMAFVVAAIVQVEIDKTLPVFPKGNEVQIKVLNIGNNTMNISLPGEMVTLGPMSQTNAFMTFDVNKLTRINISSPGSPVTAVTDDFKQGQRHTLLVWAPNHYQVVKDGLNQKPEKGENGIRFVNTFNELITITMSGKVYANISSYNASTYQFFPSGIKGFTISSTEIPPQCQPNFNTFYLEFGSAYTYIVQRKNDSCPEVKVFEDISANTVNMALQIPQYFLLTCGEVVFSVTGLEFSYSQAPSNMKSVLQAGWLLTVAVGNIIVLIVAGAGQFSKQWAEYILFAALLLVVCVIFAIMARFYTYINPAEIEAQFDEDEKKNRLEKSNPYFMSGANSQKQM

[2] = not given; remark: listed apart in the source
[3] = not given; remark: listed apart in the source
[4] = molecular target: T1, HPEPT1; assay: Inhibition of radiolabelled Gly-Sar uptake in DC5 cells overexpressing HPEPT1; type: cell-based; parameters: expressed in transfected cells; host or cells: HeLa cells overexpressing hPEPT1 (called 'HPEPT1 infected cells'); conditions: inhibition of Gly-Sar uptake, DC5 cells overexpressing HPEPT1, 10 min, 37° C.; read-out: DC5 IC50
Protocol: Amino acid prodrugs are tested for their interaction with the dipeptide transporter, HPEPT1, using tissue culture cells that are engineered to overexpress HPEPT1. In this example, the cells that overexpress HPEPT1, termed DC5, are a human meduloblastoma cell line that is stably transfected with a eukaryotic expression vector encoding HPEPT1. […] DC5 cells are plated at a density of 12,000 cells/well in 96-well tissue culture plates and allowed to grow for 2 days. The cells are washed once with 200 microliters of uptake buffer and aspirated. The plates are cooled to 4° C. and 25 ul of uptake buffer containing 125 nanomoles Gly-Sar (at a specific activity of 1 microcurie/micromole) is added. The uptake buffer also contains the prodrugs to be tested at concentrations ranging from 10 micromolar to 20 millimolar. The assay is initiated by placing the plate in a shaking water bath at 37° C. and is terminated after 10 min by rapid washing with multiple changes of 4° C. phosphate buffered saline (PBS). The radioactive Gly-Sar peptide that is transported by the hpept1 is extracted from the cell layer with 200 ul of a one to one mixture of methanol and water and is counted in 4 ml of CytoScint ES™ scintillation cocktail (ICN). The data are plotted as % Gly-Sar uptake of control (no competitive substrate) versus the competitive substrate concentration. […] Typically, values that are below 10 mM indicate that the drug interacts with transporter.

[5] = molecular target: T2, biphenyl hydrolase-like enzyme (BPHL) (Homo sapiens, UniProt Q86WA6); type: biochemical
T2 sequence (Q86WA6 38-291): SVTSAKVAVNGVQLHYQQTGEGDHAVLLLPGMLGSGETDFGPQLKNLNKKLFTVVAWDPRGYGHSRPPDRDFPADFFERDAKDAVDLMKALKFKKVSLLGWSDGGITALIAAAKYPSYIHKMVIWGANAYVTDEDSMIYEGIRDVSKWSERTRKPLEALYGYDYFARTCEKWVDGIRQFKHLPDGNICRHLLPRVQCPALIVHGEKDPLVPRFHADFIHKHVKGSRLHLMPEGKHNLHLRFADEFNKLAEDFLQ

| SMILES | Uptake (hPepT1) [1] | hPepT1/Control [1] | t1/2 Buffer pH 7.4 [min] | t1/2 Human plasma [2] [min] | t1/2 Caco-2 cell homogenates [3] [min] | IC50 [4] [mM] | % of Control (VACV) [5] [%] |
| --- | --- | --- | --- | --- | --- | --- | --- |
| CC[C@H](C)[C@H](N)C(=O)OC[C@H]1O[C@@H](n2ccc(N)nc2=O)C(F)(F)[C@@H]1O [5′-O-L-isoleucyl gemcitabine] | 1.22 ± 0.05 nmole/mg/45 min | 5.64 | 452.0 ± 9.6 | 99.2 ± 1.6 | 75.3 ± 2.8 | 0.61 |  |
| Nc1ccn([C@@H]2O[C@H](CO)[C@@H](OC(=O)[C@H](N)Cc3ccccc3)C2(F)F)c(=O)n1 [3′-O-D-phenylalanyl Gemcitabine] | Not detected |  | 39.0 ± 0.7 | 7.7 ± 0.2 | 8.8 ± 0.1 |  |  |
| NC(CC(=O)O)C(=O)OC1CC(n2cc(F)c(=O)[nH]c2=O)OC1CO (stereo not drawn) [3′-O-aspartyl-Floxuridine] |  |  |  |  |  | 10.5 | 2.0 |
| O=C(OC1CC(n2cc(F)c(=O)[nH]c2=O)OC1CO)C1CCCN1 (stereo not drawn) [3′-O-prolyl-Floxuridine] |  |  |  |  |  | > 20 |  |
| CC[C@H](C)[C@H](N)C(=O)O[C@@H]1[C@@H](CO)O[C@@H](n2ccc(N)nc2=O)C1(F)F [3′-O-L-isoleucyl gemcitabine] | 1.03 ± 0.11 nmole/mg/45 min | 1.09 | 66.0 ± 0.21 | 8.0 ± 0.1 | 10.6 ± 0.3 | 2.18 |  |
| Nc1ccn([C@@H]2O[C@H](COC(=O)[C@H](N)Cc3ccccc3)[C@@H](OC(=O)[C@H](N)Cc3ccccc3)C2(F)F)c(=O)n1 [3′,5′-di-O-D-phenylalanyl Gemcitabine] | Not detected |  | 28.0 ± 0.6 | 2.4 ± 0.2 | 8.3 ± 0.6 |  |  |
| Nc1nc2c(ncn2COCCO)c(=O)[nH]1 [Acyclovir, reference compound] |  |  |  |  |  | > 25 |  |
| CC(C)[C@H](N)C(=O)OC[C@H]1O[C@@H](n2ccc(N)nc2=O)C(F)(F)[C@@H]1O [5′-O-L-valyl Gemcitabine] | 2.14 ± 0.05 nmole/mg/45 min | 11.25 | 416.0 ± 8.5 | 56.4 ± 2.9 | 7.1 ± 0.6 | 0.7 |  |
| Nc1ccn([C@@H]2O[C@H](COC(=O)[C@@H](N)Cc3ccccc3)[C@@H](O)C2(F)F)c(=O)n1 [5′-O-L-phenylalanyl Gemcitabine] | Not detected |  | 200.0 ± 1.9 | 8.4 ± 0.2 | 3.2 ± 0.1 |  |  |
| CC(C)[C@H](N)C(=O)OC[C@H]1O[C@@H](n2ccc(N)nc2=O)C(F)(F)[C@@H]1OC(=O)[C@@H](N)C(C)C [3′,5′-di-O-L-valyl Gemcitabine] | 1.76 ± 0.09 nmole/mg/45 min | 1.15 | 55.0 ± 2.7 | 2.0 ± 0.1 | 0.9 ± 0.0 | 1.72 |  |
| CC(C)[C@@H](N)C(=O)OC[C@H]1O[C@@H](n2ccc(N)nc2=O)C(F)(F)[C@@H]1O [5′-O-D-valyl Gemcitabine] | 1.14 ± 0.04 nmole/mg/45 min | 1.58 | 424.0 ± 1.2 | 58.1 ± 2.1 | 37.4 ± 1.4 |  |  |
| Nc1ccn([C@@H]2O[C@H](COC(=O)[C@@H](N)Cc3ccccc3)[C@@H](OC(=O)[C@@H](N)Cc3ccccc3)C2(F)F)c(=O)n1 [3′,5′-di-O-L-phenylalanyl gemcitabine] | Not detected |  | 38.0 ± 0.2 | 0.7 ± 0.0 | 0.6 ± 0.0 |  |  |
| O=c1[nH]c(=O)n([C@H]2C[C@H](O)[C@@H](CO)O2)cc1F [Floxuridine, reference compound] |  |  |  |  |  | > 20 |  |
| NCCCC[C@H](N)C(=O)O[C@H]1C[C@H](n2cc(F)c(=O)[nH]c2=O)O[C@@H]1CO [3′ lysyl monoester Floxuridine] |  |  |  |  |  |  | 7.3 |
| O=C(OCC1OC(n2cc(F)c(=O)[nH]c2=O)CC1O)C1CCCN1 (stereo not drawn) [5′-O-prolyl-Floxuridine] |  |  |  |  |  | > 20 |  |
| Nc1ccn([C@@H]2O[C@H](COC(=O)[C@H](N)Cc3ccccc3)[C@@H](O)C2(F)F)c(=O)n1 [5′-O-D-phenylalanyl Gemcitabine] | Not detected |  | 204.0 ± 3.5 | 34.8 ± 1.1 | 11.4 ± 0.2 |  |  |
| Nc1ccn([C@@H]2O[C@H](CO)[C@@H](O)C2(F)F)c(=O)n1 [Gemcitabine, reference compound] |  |  |  |  |  | > 20 |  |
| O=C(OCC1OC(n2cc(F)c(=O)[nH]c2=O)CC1OC(=O)C1CCCN1)C1CCCN1 (stereo not drawn) [3′,5′-di-O-prolyl-Floxuridine] |  |  |  |  |  | > 20 |  |
| CC(C)[C@H](N)C(=O)O[C@@H]1[C@@H](CO)O[C@@H](n2ccc(N)nc2=O)C1(F)F [3′-O-L-valyl Gemcitabine] | 1.12 ± 0.07 nmole/mg/45 min | 1.11 | 64.0 ± 1.4 | 5.4 ± 0.1 | 5.0 ± 0.1 | 3.69 |  |
| NCCCCC(N)C(=O)OCC1OC(n2cc(F)c(=O)[nH]c2=O)CC1OC(=O)C(N)CCCCN (stereo not drawn) [3′,5′ lysyl diester Floxuridine] |  |  |  |  |  |  | 0.0 |
| Nc1ccn([C@@H]2O[C@H](CO)[C@@H](OC(=O)[C@@H](N)Cc3ccccc3)C2(F)F)c(=O)n1 [3′-O-L-phenylalanyl Gemcitabine] | Not detected |  | 39.0 ± 0.12 | 5.7 ± 0.1 | 0.8 ± 0.0 |  |  |
| NCCCC[C@H](N)C(=O)OC[C@H]1O[C@@H](n2cc(F)c(=O)[nH]c2=O)C[C@@H]1O [5′ lysyl monoester Floxuridine] |  |  |  |  |  |  | 8.1 |
| CC(C)[C@@H](N)C(=O)O[C@@H]1[C@@H](CO)O[C@@H](n2ccc(N)nc2=O)C1(F)F [3′-O-D-valyl Gemcitabine] | 0.81 ± 0.02 nmole/mg/45 min | 1.06 | 74.0 ± 1.2 | 5.99 ± 0.0 | 23.2 ± 0.2 |  |  |
| Nc1nc(O)c2ncn(COC(CO)CO)c2n1 [Ganciclovir, reference compound] |  |  |  |  |  | > 20 |  |
| CC[C@H](C)[C@H](N)C(=O)OC[C@H]1O[C@@H](n2ccc(N)nc2=O)C(F)(F)[C@@H]1OC(=O)[C@@H](N)[C@@H](C)CC [3′,5′-di-O-L-isoleucyl gemcitabine] | 1.16 ± 0.13 nmole/mg/45 min | 1.06 | 61.0 ± 0.5 | 2.64 ± 0.0 | 2.1 ± 0.0 | 0.82 |  |
| CC(C)[C@@H](N)C(=O)OC[C@H]1O[C@@H](n2ccc(N)nc2=O)C(F)(F)[C@@H]1OC(=O)[C@H](N)C(C)C [3′,5′-di-O-D-valyl gemcitabine] | 1.11 ± 0.08 nmole/mg/45 min | 1.13 | 52.0 ± 1.1 | 2.1 ± 0.1 | 10.3 ± 0.7 |  |  |
